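Test compounds were applied to cells in 96-well plates for 48 hours at 5 doses. Abbreviation: GI50, concentration required for 50% inhibition of growth. At the TGI there is no net growth.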
Tested on: MDA-N
Assay: NCI tumour cell line growth inhibition, 48 h

SMILES | TGI [µM] | GI50 [µM]
COc1ccccc1/C=C/c1cnccn1 | > 10 | –
CC(C)c1ccccc1S(=O)c1ccccc1C(C)(C)O (stereo not drawn) | > 100 | –
N#CC1(C2SCCS2=O)C2=C(C(=O)c3ccccc3C2=O)N2CCCC21 (stereo not drawn) | 1.55 | –
O=C(O)c1cccc(OCCO)c1 | > 100 | –
COc1cc2c(cc1OC)C13CCN4CC5=CCOC6CC(=O)N2C1C6C5CC43O (stereo not drawn) | > 100 | –
O=C(O)c1cc(O)c2c(c1)C(C1c3cc(C(=O)O)cc(O)c3C(=O)c3c(OC4OC(CO)C(O)C(O)C4O)cccc31)c1cccc(OC3OC(CO)C(O)C(O)C3O)c1C2=O (stereo not drawn) | > 100 | > 100
O/N=C\c1c(O)ccc2ccccc12 | > 100 | –
O=C(O)c1ccccc1-c1ccccc1C(=O)Nc1ccc2c(c1)Cc1cc(F)ccc1-2 | 75.5 | –
O=C(O)c1c(-c2nccc3ccccc23)[nH]c(-c2ccccc2)c1S(=O)(=O)O | > 100 | –
CCCS(=O)(=O)Nc1ccc(Nc2c3ccccc3nc3ccccc23)c(OC)c1 | 20.2 | –
O=C(O)Cc1c(O)ccc2ccccc12 | > 100 | –
NC(N)=N/N=C/c1cc(Cl)cc(Cl)c1O | > 100 | –
N#CC1Nc2ccccc2[C@@H](O)C1O (stereo partly drawn) | > 100 | –

Tested on: HOP-18 NSCLC
Assay: NCI tumour cell line growth inhibition, 48 h

SMILES | TGI [µM] | GI50 [µM]
N#CC1(C2SCCS2=O)C2=C(C(=O)c3ccccc3C2=O)N2CCCC21 (stereo not drawn) | 8.16 | –
CC(C)(C)C(=O)/C=C/c1ccc(Oc2ccccc2)cc1 | 34.9 | –
O=C1CSC(Cc2nc3ccccc3[nH]2)=N1 | 65.6 | –
COc1ccccc1NC(=O)C1=C(C)NC(C)=C(C(=O)Nc2ccccc2OC)C1c1ccc([N+](=O)[O-])cc1 | > 100 | –
CCOC(=O)[C@H](CCCNC(=O)OC(C)(C)C)NCc1ccc(OC)c(OC)c1 | > 100 | –
O=[N+]([O-])c1ccc(-n2nnc(C3=NCCCN3)c2-c2ccc(Cl)cc2)cc1 | > 100 | –
COC(=O)C12C3C4C5(C(=O)OC)C(C1C35C(=O)N(C(C)C)C(C)C)C42C(=O)N(C(C)C)C(C)C (stereo not drawn) | > 50 | –
N#CC(C#N)=c1[nH]c2cccc3c2-c2c(cccc2c3=C(C#N)C#N)[nH]1 | > 100 | –
COC(=O)/C=C/C1C(C(=O)OC)C2(C(=O)OC)CCC1(C(=O)OC)N2 (stereo not drawn) | > 100 | –
N#CC(C(=O)/C(=N/Nc1nc(=S)[nH]n1N)C(C#N)c1ccccc1)c1ccccc1 (stereo not drawn) | > 100 | –
N#CC(/C(=N/NC(=O)C(=O)NN)C(=O)NC12CC3CC(CC(C3)C1)C2)c1ccccc1 (stereo not drawn) | > 100 | –
CC(=O)OCC1OC([S-])C(OC(C)=O)C(OC(C)=O)C1OC(C)=O.CC[PH+](CC)CC.CC[PH+](CC)CC.[Au].[Au] (stereo not drawn) | 0.694 | 0.253
COc1cc2c(cc1OCc1ccccc1)CNCC2 | > 100 | –
O=C(CN1CCCCC1)N1CCc2c([nH]c3ccccc23)C1c1cccnc1 (stereo not drawn) | > 100 | –
CCCCCCCCCc1cc(=O)c2c(O)cccc2o1 | > 100 | –
O=C(C[n+]1ccccc1)NNC(=O)/C(=C/c1ccc2c(c1)OCO2)NC(=O)c1ccccc1 | > 84.7 | –
O=S(O)CCCCSSCc1ccccc1CSSCCCCS(=O)O | > 100 | –
Clc1ccc(-c2c(C3=NCCN3)nnn2-c2ccc(Cl)cc2)cc1 | > 100 | –
CC(C)(C)N1CC2(CCCCC2)C1=O | > 100 | –
NC1CCCC[C@H]1N.N[C@@H]1CCCC[C@@H]1N.O=C(P(=O)([O-])[O-])P(=O)([O-])[O-].[Pt+4].[Pt+4] | > 100 | 59.6

Tested on: RXF-631 renal
Assay: NCI tumour cell line growth inhibition, 48 h

SMILES | TGI [µM]
N#CC1(C2SCCS2=O)C2=C(C(=O)c3ccccc3C2=O)N2CCCC21 (stereo not drawn) | 5.3
COc1ccccc1NC(=O)C1=C(C)NC(C)=C(C(=O)Nc2ccccc2OC)C1c1ccc([N+](=O)[O-])cc1 | > 100
CCOC(=O)[C@H](CCCNC(=O)OC(C)(C)C)NCc1ccc(OC)c(OC)c1 | > 100
COC(=O)/C=C/C1C(C(=O)OC)C2(C(=O)OC)CCC1(C(=O)OC)N2 (stereo not drawn) | > 100
N#CC(C(=O)/C(=N/Nc1nc(=S)[nH]n1N)C(C#N)c1ccccc1)c1ccccc1 (stereo not drawn) | > 100
N#CC(/C(=N/NC(=O)C(=O)NN)C(=O)NC12CC3CC(CC(C3)C1)C2)c1ccccc1 (stereo not drawn) | > 100
COc1cc2c(cc1OCc1ccccc1)CNCC2 | > 100
O=C(CN1CCCCC1)N1CCc2c([nH]c3ccccc23)C1c1cccnc1 (stereo not drawn) | > 100
CCCCCCCCCc1cc(=O)c2c(O)cccc2o1 | > 100
O=S(O)CCCCSSCc1ccccc1CSSCCCCS(=O)O | > 100
O=C(CCC(=O)Nc1cccc(Cl)c1)CC(=O)c1ccc(Cl)cc1 | > 100
COc1ccc(C(=O)C(CO)Oc2ccccc2OC)cc1OC (stereo not drawn) | > 100

Tested on: DLD-1 colon
Assay: NCI tumour cell line growth inhibition, 48 h

SMILES | TGI [µM] | GI50 [µM]
N#CC1(C2SCCS2=O)C2=C(C(=O)c3ccccc3C2=O)N2CCCC21 (stereo not drawn) | 14.1 | –
CC(C)(C)C(=O)/C=C/c1ccc(Oc2ccccc2)cc1 | 61.4 | –
CC1=C(C(=O)Nc2c(C)cccc2C)C(c2ccccc2Cl)C(C(=O)Nc2c(C)cccc2C)=C(C)N1 | > 100 | –
O=C1CSC(Cc2nc3ccccc3[nH]2)=N1 | 49 | –
COc1ccccc1NC(=O)C1=C(C)NC(C)=C(C(=O)Nc2ccccc2OC)C1c1ccc([N+](=O)[O-])cc1 | > 100 | –
CCOC(=O)[C@H](CCCNC(=O)OC(C)(C)C)NCc1ccc(OC)c(OC)c1 | > 100 | –
O=C(/C=C/c1c(O)ccc2ccccc12)c1ccc2ccccc2c1 | > 100 | –
O=[N+]([O-])c1ccc(-n2nnc(C3=NCCCN3)c2-c2ccc(Cl)cc2)cc1 | > 100 | –
COC(=O)C12C3C4C5(C(=O)OC)C(C1C35C(=O)N(C(C)C)C(C)C)C42C(=O)N(C(C)C)C(C)C (stereo not drawn) | > 38.4 | –
N#CC(C#N)=c1[nH]c2cccc3c2-c2c(cccc2c3=C(C#N)C#N)[nH]1 | > 100 | –
COC(=O)/C=C/C1C(C(=O)OC)C2(C(=O)OC)CCC1(C(=O)OC)N2 (stereo not drawn) | > 100 | –
N#CC(C(=O)/C(=N/Nc1nc(=S)[nH]n1N)C(C#N)c1ccccc1)c1ccccc1 (stereo not drawn) | > 100 | –
N#CC(/C(=N/NC(=O)C(=O)NN)C(=O)NC12CC3CC(CC(C3)C1)C2)c1ccccc1 (stereo not drawn) | > 100 | –
CC(=O)OCC1OC([S-])C(OC(C)=O)C(OC(C)=O)C1OC(C)=O.CC[PH+](CC)CC.CC[PH+](CC)CC.[Au].[Au] (stereo not drawn) | 0.49 | 0.174
Cc1cc(C)n(CCNCCn2nc(C)cc2C)n1 | > 100 | –
COc1cc2c(cc1OCc1ccccc1)CNCC2 | > 100 | –
O=C(CN1CCCCC1)N1CCc2c([nH]c3ccccc23)C1c1cccnc1 (stereo not drawn) | > 100 | –
CCCCCCCCCc1cc(=O)c2c(O)cccc2o1 | > 100 | –
O=C(C[n+]1ccccc1)NNC(=O)/C(=C/c1ccc2c(c1)OCO2)NC(=O)c1ccccc1 | > 62.2 | –
O=S(O)CCCCSSCc1ccccc1CSSCCCCS(=O)O | > 100 | –
Clc1ccc(-c2c(C3=NCCN3)nnn2-c2ccc(Cl)cc2)cc1 | > 100 | –
CC(C)(C)N1CC2(CCCCC2)C1=O | > 100 | –
NC1CCCC[C@H]1N.N[C@@H]1CCCC[C@@H]1N.O=C(P(=O)([O-])[O-])P(=O)([O-])[O-].[Pt+4].[Pt+4] | > 100 | > 100
O=C(CSc1nnc(-c2ccccc2NC(=O)C(F)(F)F)c(=O)[nH]1)NC(=O)Nc1ccccc1 | 44.7 | –
COc1ccc(C(=O)C(CO)Oc2ccccc2OC)cc1OC (stereo not drawn) | > 100 | –

Tested on: XF 498 CNS
Assay: NCI tumour cell line growth inhibition, 48 h

SMILES | TGI [µM] | GI50 [µM]
N#CC1(C2SCCS2=O)C2=C(C(=O)c3ccccc3C2=O)N2CCCC21 (stereo not drawn) | 8.15 | –
CC(C)(C)C(=O)/C=C/c1ccc(Oc2ccccc2)cc1 | 28.8 | –
CC1=C(C(=O)Nc2c(C)cccc2C)C(c2ccccc2Cl)C(C(=O)Nc2c(C)cccc2C)=C(C)N1 | > 100 | –
O=C1CSC(Cc2nc3ccccc3[nH]2)=N1 | 39.9 | –
COc1ccccc1NC(=O)C1=C(C)NC(C)=C(C(=O)Nc2ccccc2OC)C1c1ccc([N+](=O)[O-])cc1 | 33.7 | –
CCOC(=O)[C@H](CCCNC(=O)OC(C)(C)C)NCc1ccc(OC)c(OC)c1 | > 100 | –
O=[N+]([O-])c1ccc(-n2nnc(C3=NCCCN3)c2-c2ccc(Cl)cc2)cc1 | > 100 | –
N#CC(C#N)=c1[nH]c2cccc3c2-c2c(cccc2c3=C(C#N)C#N)[nH]1 | > 100 | –
COC(=O)/C=C/C1C(C(=O)OC)C2(C(=O)OC)CCC1(C(=O)OC)N2 (stereo not drawn) | > 100 | –
N#CC(C(=O)/C(=N/Nc1nc(=S)[nH]n1N)C(C#N)c1ccccc1)c1ccccc1 (stereo not drawn) | > 100 | –
CC(=O)OCC1OC([S-])C(OC(C)=O)C(OC(C)=O)C1OC(C)=O.CC[PH+](CC)CC.CC[PH+](CC)CC.[Au].[Au] (stereo not drawn) | 0.449 | 0.181
Cc1cc(C)n(CCNCCn2nc(C)cc2C)n1 | > 1 | –
COc1cc2c(cc1OCc1ccccc1)CNCC2 | > 100 | –
O=C(CN1CCCCC1)N1CCc2c([nH]c3ccccc23)C1c1cccnc1 (stereo not drawn) | > 100 | –
CCCCCCCCCc1cc(=O)c2c(O)cccc2o1 | > 100 | –
O=C(C[n+]1ccccc1)NNC(=O)/C(=C/c1ccc2c(c1)OCO2)NC(=O)c1ccccc1 | > 83.5 | –
O=S(O)CCCCSSCc1ccccc1CSSCCCCS(=O)O | 25.5 | –
Clc1ccc(-c2c(C3=NCCN3)nnn2-c2ccc(Cl)cc2)cc1 | 29.5 | –
O=C(CCC(=O)Nc1cccc(Cl)c1)CC(=O)c1ccc(Cl)cc1 | > 100 | –
O=C(CSc1nnc(-c2ccccc2NC(=O)C(F)(F)F)c(=O)[nH]1)NC(=O)Nc1ccccc1 | > 100 | –
CCOC(=O)c1[nH]c(COC(C)=O)c(CCCOC(C)=O)c1CCCOC(C)=O | > 100 | –
COc1ccc(C(=O)C(CO)Oc2ccccc2OC)cc1OC (stereo not drawn) | > 100 | –

— PubChem BioAssay (NCI)
